Measured values reported in patent publication US12391679B2, “Benzamide-substituted bicyclic imidazo- and pyrazolo-fused -pyridine, -pyrimide, and -pyridazine compounds for treatment of inflammatory diseases” (ONCO3R Therapeutics BV, priority 2019, dated 2025).

Legend:
SIK3 = molecular target: T1, SIK3 (Homo sapiens, UniProt Q9Y2K2); experiment: ADP-Glo kinase assay, SIK3; assay type: biochemical
T1 construct: purchased SignalChem S12-11G-100
In short: (§1)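 Luminescent ADP-formation read-out: enzyme–substrate mix + ATP, 120 min RT; ATP depletion 40 min RT; ADP→ATP conversion with luciferase/luciferin 30 min RT. Controls: 1% DMSO (negative), 10 μM staurosporine final (positive).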

SIK1 = molecular target: T2, SIK1 (Homo sapiens, UniProt P57059); experiment: ADP-Glo kinase assay, SIK1; assay type: biochemical
T2 construct: purchased Carna Biosciences 02-131
T2 sequence (P57059 whole entry): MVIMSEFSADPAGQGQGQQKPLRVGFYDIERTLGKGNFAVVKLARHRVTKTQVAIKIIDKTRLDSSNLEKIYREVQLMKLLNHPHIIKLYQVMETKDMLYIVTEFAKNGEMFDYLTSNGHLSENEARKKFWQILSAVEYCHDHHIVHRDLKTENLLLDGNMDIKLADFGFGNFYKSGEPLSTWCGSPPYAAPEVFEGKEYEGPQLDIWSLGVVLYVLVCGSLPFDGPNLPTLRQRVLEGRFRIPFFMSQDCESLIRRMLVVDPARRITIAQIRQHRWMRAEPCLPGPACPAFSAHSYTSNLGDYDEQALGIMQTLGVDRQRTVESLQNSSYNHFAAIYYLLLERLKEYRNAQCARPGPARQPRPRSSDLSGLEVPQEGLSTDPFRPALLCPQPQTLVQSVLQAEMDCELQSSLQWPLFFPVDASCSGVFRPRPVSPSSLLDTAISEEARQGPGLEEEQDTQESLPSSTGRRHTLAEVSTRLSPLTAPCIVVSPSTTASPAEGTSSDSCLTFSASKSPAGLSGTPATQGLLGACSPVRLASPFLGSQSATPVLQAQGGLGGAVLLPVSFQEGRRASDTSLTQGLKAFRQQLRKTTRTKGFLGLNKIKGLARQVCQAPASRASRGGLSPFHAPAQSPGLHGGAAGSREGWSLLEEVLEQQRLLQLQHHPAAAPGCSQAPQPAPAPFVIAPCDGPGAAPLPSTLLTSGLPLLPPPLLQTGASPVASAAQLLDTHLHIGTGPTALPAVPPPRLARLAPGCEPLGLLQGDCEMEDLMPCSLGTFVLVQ
In short: as §1

[1] = system: LPS-induced TNFα in monocyte-derived macrophages; experiment: MdM assay: LPS-triggered TNFα (ELISA); assay type: cell-based, human; details: Macrophage; human MdM; LPS 200 ng/mL; supernatant after 20 h; inhibition of TNFα; read-out: TNFα EC50
In short: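 TNFα secretion quantified by streptavidin-HRP/luminol sandwich ELISA in supernatants collected 20 h after LPS (200 ng/mL). Macrophages derived from magnetically isolated human CD14+ monocytes were used at day 10, with compound added 1 h before LPS; final DMSO 0.2%.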

T1 sequence (Q9Y2K2 59-365 limits assumed): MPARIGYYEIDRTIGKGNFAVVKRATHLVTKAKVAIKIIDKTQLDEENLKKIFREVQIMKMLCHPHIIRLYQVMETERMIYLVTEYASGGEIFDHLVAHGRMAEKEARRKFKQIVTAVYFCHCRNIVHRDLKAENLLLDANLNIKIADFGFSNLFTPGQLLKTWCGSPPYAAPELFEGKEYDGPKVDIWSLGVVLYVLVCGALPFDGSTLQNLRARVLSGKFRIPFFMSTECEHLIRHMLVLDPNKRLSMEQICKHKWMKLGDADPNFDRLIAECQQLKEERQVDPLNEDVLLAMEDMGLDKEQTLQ

| Structure (SMILES) | IC50 (SIK3) [nM] | IC50 (SIK1) [nM] | EC50 [1] [nM] |
| --- | --- | --- | --- |
| COc1cc(-c2cnn3cc(C4COC4)ccc23)cc(OC(F)F)c1C(=O)N[C@@H]1C[C@@H]1F [Cpd 218, 2-(difluoromethoxy)-N-[(1R,2S)-2-fluorocyclopropyl]-6-methoxy-4-[6-(oxetan-3-yl)pyrazolo[1,5-a]pyridin-3-yl]benzamide] | 0.01 to 10 | 100 to 500 | 100 to 1000 |
| COc1cc(-c2cnc3cc(C4(C#N)CC4)ccn23)cc(OC(F)F)c1C(=O)NC1CC1 [Cpd 33, 4-[7-(1-cyanocyclopropyl)imidazo[1,2-a]pyridin-3-yl]-N-cyclopropyl-2-(difluoromethoxy)-6-methoxy-benzamide] | 0.01 to 10 | 100 to 500 | 100 to 1000 |
| COc1cc(-c2cnc3cc(C(C)(C)C(C)O)ccn23)cc(OC(F)F)c1C(=O)NC1CC1 (stereo not drawn) [Cpd 172, N-cyclopropyl-2-(difluoromethoxy)-4-[7-(2-hydroxy-1,1-dimethyl-propyl)imidazo[1,2-a]pyridin-3-yl]-6-methoxy-benzamide] | 10 to 100 | > 500 | 100 to 1000 |
| COc1cc(-c2cnc3cc(C4CCOCC4)c(F)cn23)cc(OC(F)F)c1C(=O)NC1CC1 [Cpd 166, N-cyclopropyl-2-(difluoromethoxy)-4-(6-fluoro-7-tetrahydropyran-4-yl-imidazo[1,2-a]pyridin-3-yl)-6-methoxy-benzamide] | 0.01 to 10 | > 500 | 100 to 1000 |
| COc1cc(-c2cnc3cc(C4(F)COC4)ccn23)cc(OC(F)F)c1C(=O)N[C@@H]1C[C@@H]1F [Cpd 224, 2-(difluoromethoxy)-N-[(1R,2S)-2-fluorocyclopropyl]-4-[7-(3-fluorooxetan-3-yl)imidazo[1,2-a]pyridin-3-yl]-6-methoxy-benzamide] | 0.01 to 10 | 100 to 500 | 100 to 1000 |
| COc1cc(-c2cnc3cc(C(C)(C)CN)ccn23)cc(OC(F)F)c1C(=O)NC1CC1 [Cpd 93, 4-[7-(2-amino-1,1-dimethyl-ethyl)imidazo[1,2-a]pyridin-3-yl]-N-cyclopropyl-2-(difluoromethoxy)-6-methoxy-benzamide] | 10 to 100 | > 500 | 1000 to 5000 |
| COc1cc(-c2cnc3cc(C(C)(C)C#N)ccn23)cc(OC(F)F)c1C(=O)N[C@@H]1C[C@@H]1F [Cpd 79, 4-[7-(1-cyano-1-methyl-ethyl)imidazo[1,2-a]pyridin-3-yl]-2-(difluoromethoxy)-N-[(1R,2S)-2-fluorocyclopropyl]-6-methoxy-benzamide] | 0.01 to 10 | > 500 | 100 to 1000 |
| COc1cc(-c2cnc3cc(C4CN(C(C)=O)C4)ccn23)cc(OC(F)F)c1C(=O)NC1CC1 [Cpd 63, 4-[7-(1-acetylazetidin-3-yl)imidazo[1,2-a]pyridin-3-yl]-N-cyclopropyl-2-(difluoromethoxy)-6-methoxy-benzamide] | 0.01 to 10 | 100 to 500 | 1000 to 5000 |
| COc1cc(-c2cnc3cc(C(C)(C)C#N)ccn23)cc(OC(F)F)c1C(=O)NCC(F)F [Cpd 70, 4-[7-(1-cyano-1-methyl-ethyl)imidazo[1,2-a]pyridin-3-yl]-N-(2,2-difluoroethyl)-2-(difluoromethoxy)-6-methoxy-benzamide] | 0.01 to 10 | > 500 | 100 to 1000 |
| CC[C@](C)(O)c1ccn2c(-c3cc(OC)c(C(=O)NC4CC4)c(OC(F)F)c3)cnc2c1 (single isomer, unassigned) [Cpd 164, N-cyclopropyl-2-(difluoromethoxy)-4-[7-(1-hydroxy-1-methyl-propyl)imidazo[1,2-a]pyridin-3-yl]-6-methoxy-benzamide] | 10 to 100 | > 500 | 100 to 1000 |
| COc1cc(-c2cnc3cc(C4CCCN(C(=O)OC(C)(C)C)C4)ccn23)cc(OC(F)F)c1C(=O)NC1CC1 (stereo not drawn) [Cpd 64, tert-butyl 3-[3-[4-(cyclopropylcarbamoyl)-3-(difluoromethoxy)-5-methoxy-phenyl]imidazo[1,2-a]pyridin-7-yl]piperidine-1-carboxylate] | 0.01 to 10 | > 500 | 100 to 1000 |
| COc1cc(-c2cnc3cc([C@@](C)(O)C4CC4)ccn23)cc(OC(F)F)c1C(=O)NC1CC1 (single isomer, unassigned) [Cpd 162, N-cyclopropyl-4-[7-(1-cyclopropyl-1-hydroxy-ethyl)imidazo[1,2-a]pyridin-3-yl]-2-(difluoromethoxy)-6-methoxy-benzamide] | 10 to 100 | > 500 | 100 to 1000 |
| COC(=O)C1(c2ccn3c(-c4cc(OC)c(C(=O)NC5CC5)c(OC(F)F)c4)cnc3c2)CC1 [Cpd 113, methyl 1-[3-[4-(cyclopropylcarbamoyl)-3-(difluoromethoxy)-5-methoxy-phenyl]imidazo[1,2-a]pyridin-7-yl]cyclopropanecarboxylate] | 0.01 to 10 | > 500 | 100 to 1000 |
| COc1cc(-c2cnc3cc(C(C)(C)C#N)cnn23)cc(OC(F)F)c1C(=O)N[C@@H]1C[C@@H]1F [Cpd 228, 4-[7-(1-cyano-1-methyl-ethyl)imidazo[1,2-b]pyridazin-3-yl]-2-(difluoromethoxy)-N-[(1R,2S)-2-fluorocyclopropyl]-6-methoxy-benzamide] | 0.01 to 10 | > 500 | 100 to 1000 |
| COc1cc(-c2cnn3cc(C4(C#N)CCOCC4)ccc23)cc(OC(F)F)c1C(=O)NC1CC1 [Cpd 237, 4-[6-(4-cyanotetrahydropyran-4-yl)pyrazolo[1,5-a]pyridin-3-yl]-N-cyclopropyl-2-(difluoromethoxy)-6-methoxy-benzamide] | 0.01 to 10 | > 500 | 1000 to 5000 |
| COc1cc(-c2cnc3cc(C(C)(C)CN4CCOCC4)ccn23)cc(OC(F)F)c1C(=O)NC1CC1 [Cpd 160, N-cyclopropyl-2-(difluoromethoxy)-4-[7-(1,1-dimethyl-2-morpholino-ethyl)imidazo[1,2-a]pyridin-3-yl]-6-methoxy-benzamide] | 10 to 100 | > 500 | 100 to 1000 |
| COc1cc(-c2cnc3cc(C(F)(F)CO)ccn23)cc(OC(F)F)c1C(=O)NC1CC1 [Cpd 136, N-cyclopropyl-4-[7-(1,1-difluoro-2-hydroxy-ethyl)imidazo[1,2-a]pyridin-3-yl]-2-(difluoromethoxy)-6-methoxy-benzamide] | 0.01 to 10 | > 500 | 100 to 1000 |
| COc1cc(-c2cnc3cc(C(C)(O)C(F)(F)F)ccn23)cc(OC(F)F)c1C(=O)NC1CC1 (stereo not drawn) [Cpd 129, N-cyclopropyl-2-(difluoromethoxy)-6-methoxy-4-[7-(2,2,2-trifluoro-1-hydroxy-1-methyl-ethyl)imidazo[1,2-a]pyridin-3-yl]benzamide] | 10 to 100 | > 500 | 100 to 1000 |
| COc1cc(-c2cnn3cc(C(C)(C)CO)ccc23)cc(OC(F)F)c1C(=O)N[C@@H]1C[C@@H]1F [Cpd 242, 2-(difluoromethoxy)-N-[(1R,2S)-2-fluorocyclopropyl]-4-[6-(2-hydroxy-1,1-dimethyl-ethyl)pyrazolo[1,5-a]pyridin-3-yl]-6-methoxy-benzamide] | 0.01 to 10 | > 500 | 100 to 1000 |
| COc1cc(-c2cnc3cc(C(C)(C)C#N)ccn23)cc(OC(F)F)c1C(=O)N1CC(F)C1 [Cpd 96, 2-[3-[3-(difluoromethoxy)-4-(3-fluoroazetidine-1-carbonyl)-5-methoxy-phenyl]imidazo[1,2-a]pyridin-7-yl]-2-methyl-propanenitrile] | 0.01 to 10 | > 500 | 100 to 1000 |
| COc1cc(-c2cnc3cc(C(C)O)ccn23)cc(OC(F)F)c1C(=O)NC1CC1 (stereo not drawn) [Cpd 140, N-cyclopropyl-2-(difluoromethoxy)-4-[7-(1-hydroxyethyl)imidazo[1,2-a]pyridin-3-yl]-6-methoxy-benzamide] | 10 to 100 | 100 to 500 | 1000 to 5000 |
| COc1cc(-c2cnn3cc(C(C)(C)N)ccc23)cc(OC(F)F)c1C(=O)N[C@@H]1C[C@@H]1F [Cpd 256, 4-[6-(1-amino-1-methyl-ethyl)pyrazolo[1,5-a]pyridin-3-yl]-2-(difluoromethoxy)-N-[(1R,2S)-2-fluorocyclopropyl]-6-methoxy-benzamide] | 0.01 to 10 | > 500 | 1000 to 5000 |
| COc1cc(-c2cnc3cc(C(C)(C)C#N)ccn23)cc(OC(F)F)c1C(=O)NCC1CC1 [Cpd 39, 4-[7-(1-cyano-1-methyl-ethyl)imidazo[1,2-a]pyridin-3-yl]-N-(cyclopropylmethyl)-2-(difluoromethoxy)-6-methoxy-benzamide] | 0.01 to 10 | > 500 | 100 to 1000 |
| COc1cc(-c2cnc3cc(C(C)(C)N)ccn23)cc(OC(F)F)c1C(=O)NC1CC1 [Cpd 106, 4-[7-(1-amino-1-methyl-ethyl)imidazo[1,2-a]pyridin-3-yl]-N-cyclopropyl-2-(difluoromethoxy)-6-methoxy-benzamide] | 0.01 to 10 | > 500 | 100 to 1000 |
| COc1cc(-c2cnc3cc(C4(F)COC4)ccn23)cc(OC(F)F)c1C(=O)NC1CC1 [Cpd 207, N-cyclopropyl-2-(difluoromethoxy)-4-[7-(3-fluorooxetan-3-yl)imidazo[1,2-a]pyridin-3-yl]-6-methoxy-benzamide] | 0.01 to 10 | > 500 | 100 to 1000 |
| COc1cc(-c2cnc3cc(C4(C#N)CCOCC4)ccn23)cc(OC)c1C(=O)NCC(F)(F)F [Cpd 107, 4-[7-(4-cyanotetrahydropyran-4-yl)imidazo[1,2-a]pyridin-3-yl]-2,6-dimethoxy-N-(2,2,2-trifluoroethyl)benzamide] | 0.01 to 10 | > 500 | 1000 to 5000 |
